Square brackets hold non-standard residues; d marks the D form. Peptide text beside a SMILES is read from it. d2Nal = N[C@H](Cc1ccc2ccccc2c1)C(=O)O; 3Amb = NCc1cccc(C(=O)O)c1
Species: Rattus norvegicus
Test: In vitro release of growth hormone by rat pituitary assay
Assay type: functional

| Structure (SMILES) | EC50 [nM] |
| --- | --- |
| NCCCC[C@H](NC(=O)[C@@H](Cc1ccccc1)NC(=O)[C@@H](Cc1ccc2ccccc2c1)NC(=O)c1cc(CN)cs1)C(N)=O | 675 |
| NCCCC[C@H](NC(=O)[C@@H](Cc1ccccc1)NC(=O)[C@@H](Cc1ccc2ccccc2c1)NC(=O)c1ccccc1CN)C(N)=O | 85 |
| NCCCC[C@H](NC(=O)[C@@H](Cc1ccccc1)NC(=O)[C@@H](Cc1ccc2ccccc2c1)NC(=O)c1sccc1CN)C(N)=O | 27 |
| C[C@H](N)C(=O)N[C@@H](Cc1c[nH]cn1)C(=O)N[C@H](Cc1ccc2ccccc2c1)C(=O)N[C@H](Cc1ccccc1)C(=O)N[C@@H](CCCCN)C(N)=O | 6 |
| NCCCC[C@H](NC(=O)[C@@H](Cc1ccccc1)NC(=O)[C@@H](Cc1ccc2ccccc2c1)NC(=O)c1cccc(CN)c1)C(N)=O (H-[3Amb][d2Nal][dF]K-NH2) | 7 |
| NCCCC[C@H](NC(=O)[C@@H](Cc1ccccc1)NC(=O)[C@@H](Cc1ccc2ccccc2c1)NC(=O)c1ccc(CN)s1)C(N)=O | 210 |
